Assay results from patent US9193744B2, “Heterocyclic nuclear hormone receptor modulators” (AbbVie Inc., priority 2012, dated 2015).
Like-named read-outs stand apart in the source and are kept apart here.

Columns and labels:
[1] = test system: IL-6; experiment: A549 Cell Assay to Measure Inflammation Markers (inhibition of IL-1β-induced IL-6); type: cell-based; conditions: Homo sapiens
Experimental: A549 Cell Assay to Measure Inflammation Markers
A549 cells were seeded (3E4 cells/well) in 96-well assay plates in culture medium (100 μL/well., F-12 K base media, supplemented with 10% FBS and 100 μ/mL-100 μg/mL Pen-Strep.) After overnight culture in an incubator set to 37° C., 4.9% CO2, and 90% humidity, media was removed from adherent cells by aspiration and replaced with 100 μL/well Assay Medium (F-12 K base media supplemented with 5% charcoal stripped calf sera and 100 U/mL-100 μg/mL Pen-Strep.) Compounds were prepared in DMSO and serial diluted (1:3, 1:4, or 1:5) with DMSO in Dilution Plate(s) to give 10 dilution points for each compound tested. Further dilution (1:250) of compound was made into assay medium and 50 μL/well diluted drug or DMSO/media control was applied to cells. After a 1 h pre-incubation in a temperature, CO2, and humidity controlled incubator, set to 37° C., 50 μL/well of 4 ng/mL IL-1β diluted in assay media, was applied to cultures. Assay plates, with a final volume of 200 μL/well and final concentrations of 0.1% DMSO and 1 ng/mL IL-1β were returned to incubator for a four h incubation period. Next, plates were spun at 183 g (1000 rpm in Beckman/Coulter Allegra 6KR centrifuge) for 10 min. Cell-free supernatant (150 μL/well) was collected and IL-6 was measured by MSD kit, following protocol of manufacturer, and using MSD SECTOR Imager 6000 instrument. Potency of compounds to inhibit IL-6 was determined using the percent reduction of measured IL-6 in wells with compound compared to control wells without drug, and relative to (100% inhibition) positive control compound of 1 μM prednisolone. Results were represented as IC50 and Emax values. To verify that viable cell numbers were similar across plate(s), and not confounding compound IC50 data interpretation, the remaining 50 μL/well of cells and media (after removal of supernatant) were used to run Cell Titer-Glo Assay per directions of manufacturer.

[2] = biological target: T1, Glucocorticoid Receptor (GR) (Homo sapiens, UniProt P04150); experiment: GR Fluorescence Polarization Assay (PolarScreen Glucocorticoid Receptor Competitor Assay, Red); conditions: fluorescence polarization binding ranges
T1 construct: purchased Invitrogen P2893
T1 sequence (P04150 1-777): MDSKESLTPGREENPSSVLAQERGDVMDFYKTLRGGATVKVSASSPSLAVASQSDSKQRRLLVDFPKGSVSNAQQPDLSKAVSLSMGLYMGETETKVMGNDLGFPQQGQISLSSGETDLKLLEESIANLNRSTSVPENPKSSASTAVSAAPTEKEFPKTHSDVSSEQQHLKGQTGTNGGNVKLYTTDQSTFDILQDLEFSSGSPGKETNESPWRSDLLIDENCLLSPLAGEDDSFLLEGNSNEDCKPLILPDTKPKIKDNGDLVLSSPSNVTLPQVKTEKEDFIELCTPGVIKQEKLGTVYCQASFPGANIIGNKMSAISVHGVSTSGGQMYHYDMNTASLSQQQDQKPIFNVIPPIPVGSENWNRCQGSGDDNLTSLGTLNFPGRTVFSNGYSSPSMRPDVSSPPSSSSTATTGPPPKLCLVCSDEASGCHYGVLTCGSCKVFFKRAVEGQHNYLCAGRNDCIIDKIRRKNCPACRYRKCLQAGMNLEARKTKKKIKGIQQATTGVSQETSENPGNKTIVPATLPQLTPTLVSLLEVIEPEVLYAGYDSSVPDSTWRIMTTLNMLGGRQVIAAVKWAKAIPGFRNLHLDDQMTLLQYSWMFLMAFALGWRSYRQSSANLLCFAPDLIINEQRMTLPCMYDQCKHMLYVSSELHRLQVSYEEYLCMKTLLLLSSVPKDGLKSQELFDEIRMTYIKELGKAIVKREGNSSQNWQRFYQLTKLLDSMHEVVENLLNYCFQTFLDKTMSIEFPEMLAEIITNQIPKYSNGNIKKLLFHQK
Experimental: Fluorescence polarization assays were carried out using the PolarScreen™ Glucocorticoid Receptor Competitor Assay, Red from Invitrogen (P2893). The assay buffer was prepared according to the manufacturer's protocol and used to dilute the fluorescent glucocorticoid and GR. Compounds were prepared and serial diluted 1:4 in DMSO. Compound, fluorescent glucocorticoid and GR were added in a final volume of 20 μL and incubated overnight at 4° C. Fluorescent polarization was measured on the PerkinElmer Envision®. Fluorescence polarization binding ranges measured using GR Fluorescence Polarization Assay: […]

[3] = A549 cells, read-out: A549 cell assay
[4] = A549, read-out: A549 cell assay

| IC50 [1, 3] [nM] | IC50 [2] [nM] | Compound | IC50 [1, 4] [nM] |
| --- | --- | --- | --- |
| < 100 | < 100 | CC[C@]12C[C@H](O)[C@@](O)(C(F)(F)F)C[C@H]1CCCc1cc3c(cnn3-c3ccc(F)cc3)cc12 (single isomer, unassigned) [Example 99] |  |
| < 100 | < 100 | CC[C@@]12CC[C@](O)(C(F)(F)F)C[C@H]1CC[C@H](O)c1cc3c(cnn3-c3ccc(F)cc3)cc12 (single isomer, unassigned) [Example 104] |  |
| < 100 | < 100 | CC[C@@]12CC[C@](O)(C(F)(F)F)C=C1CCCc1cc3c(cnn3-c3ccc(F)cc3)cc12 (single isomer, unassigned) [Example 106] |  |
| 100 to 1000 | < 100 | CC[C@]12CC[C@@](O)(C(F)(F)F)C=C1CCCc1cc3c(cnn3-c3ccc(F)cc3)cc12 (single isomer, unassigned) [Example 107] |  |
| < 100 | < 100 | C#C[C@@]1(O)CC[C@@]2(CC)c3cc4cnn(-c5ccc(F)cc5)c4cc3CCC[C@@H]2C1 (single isomer, unassigned) [Example 109] |  |
| 100 to 1000 | < 100 | C#C[C@]1(O)CC[C@]2(CC)c3cc4cnn(-c5ccc(F)cc5)c4cc3CCC[C@H]2C1 (single isomer, unassigned) [Example 110] |  |
| 100 to 1000 | 100 to 1000 | CC[C@@]12CC(=O)[C@](O)(C(F)(F)F)C[C@H]1CCCc1cc3c(cnn3-c3ccc(F)cc3)cc12 (single isomer, unassigned) [Example 115] |  |
| 100 to 1000 | 100 to 1000 | CC[C@]12CC(=O)[C@@](O)(C(F)(F)F)C[C@@H]1CCCc1cc3c(cnn3-c3ccc(F)cc3)cc12 (single isomer, unassigned) [Example 116] |  |
| < 100 | < 100 | CC[C@@]12C[C@@](C)(O)[C@](O)(C(F)(F)F)C[C@H]1CCCc1cc3c(cnn3-c3ccc(F)cc3)cc12 (single isomer, unassigned) [Example 117] |  |
| 100 to 1000 | < 100 | CC[C@]12C[C@](C)(O)[C@@](O)(C(F)(F)F)C[C@@H]1CCCc1cc3c(cnn3-c3ccc(F)cc3)cc12 (single isomer, unassigned) [Example 118] |  |
| < 100 | < 100 | CC[C@@]12C[C@@H](O)[C@](O)(C(F)(F)F)C[C@H]1CCCc1cc3c(cnn3-c3ccc(F)cc3)cc12 (single isomer, unassigned) [Example 119] |  |
| < 100 | < 100 | CC[C@@]12C[C@H](O)[C@](O)(C(F)(F)F)C[C@H]1CCCc1cc3c(cnn3-c3ccc(F)cc3)cc12 (single isomer, unassigned) [Example 121] |  |
| < 100 | < 100 | CC[C@]12C[C@@H](O)[C@@](O)(C(F)(F)F)C[C@@H]1CCCc1cc3c(cnn3-c3ccc(F)cc3)cc12 (single isomer, unassigned) [Example 122] |  |
| < 100 | < 100 | CC[C@@]12CC[C@](O)(COC)C[C@@H]1CCCc1cc3c(cnn3-c3ccncc3)cc12 (single isomer, unassigned) [Example 123] |  |
| < 100 | < 100 | CC[C@@]12CC[C@](O)(COC)C[C@@H]1CCOc1cc3c(cnn3-c3ccnc(C)c3)cc12 (single isomer, unassigned) [Example 128] |  |
| < 100 | < 100 | CC[C@@]12CC[C@](O)(C(F)(F)F)C[C@H]1CCOc1cc3c(cnn3-c3ccc(F)cc3)cc12 (single isomer, unassigned) [Example 146] |  |
| 100 to 1000 | < 100 | CC[C@]12CC[C@@](O)(C(F)(F)F)C[C@@H]1CCOc1cc3c(cnn3-c3ccc(F)cc3)cc12 (single isomer, unassigned) [Example 147] |  |
| < 100 | < 100 | C[C@@]1(O)CC[C@@]2(Cc3ccccn3)c3cc4cnn(-c5ccc(F)cc5)c4nc3CCC[C@H]2C1 (single isomer, unassigned) [Example 149] |  |

Second part, the compound before the results:

| Compound | IC50 [1, 3] [nM] | IC50 [2] [nM] | IC50 [1, 4] [nM] |
| --- | --- | --- | --- |
| CCOC[C@@]1(O)CC[C@]2(CC)c3cc4cnn(-c5ccc(F)cc5)c4cc3CCC[C@H]2C1 (single isomer, unassigned) [Example 10] | > 10000 | 100 to 1000 |  |
| C[C@@]1(O)CC[C@@]2(Cc3ccccn3)c3cc4cnn(-c5ccc(F)cc5)c4cc3CCC[C@H]2C1 (single isomer, unassigned) [Example 15] | < 100 | < 100 |  |
| C[C@]1(O)CC[C@]2(Cc3ccccn3)c3cc4cnn(-c5ccc(F)cc5)c4cc3CCC[C@@H]2C1 (single isomer, unassigned) [Example 16] | < 100 | < 100 |  |
| N#CC[C@@]1(O)CC[C@@]2(Cc3ccccn3)c3cc4cnn(-c5ccc(F)cc5)c4cc3CCC[C@H]2C1 (single isomer, unassigned) [Example 17] | < 100 | < 100 |  |
| N#CC[C@]1(O)CC[C@]2(Cc3ccccn3)c3cc4cnn(-c5ccc(F)cc5)c4cc3CCC[C@@H]2C1 (single isomer, unassigned) [Example 18] | < 100 | < 100 |  |
| N#C[C@@]12CC[C@](O)(C(F)(F)F)C[C@H]1CCCc1cc3c(cnn3-c3ccc(F)cc3)cc12 (single isomer, unassigned) [Example 72] | 100 to 1000 | < 100 |  |
| N#C[C@]12CC[C@@](O)(C(F)(F)F)C[C@@H]1CCCc1cc3c(cnn3-c3ccc(F)cc3)cc12 (single isomer, unassigned) [Example 73] |  | 100 to 1000 | > 10000 |
| N#CC[C@@]12CC[C@](O)(C(F)(F)F)C[C@H]1CCCc1cc3c(cnn3-c3ccc(F)cc3)cc12 (single isomer, unassigned) [Example 81] |  | < 100 | < 100 |
| N#CC[C@]12CC[C@@](O)(C(F)(F)F)C[C@@H]1CCCc1cc3c(cnn3-c3ccc(F)cc3)cc12 (single isomer, unassigned) [Example 82] | 100 to 1000 | < 100 |  |
| CC(=O)NC[C@]12CC[C@@](O)(C(F)(F)F)C[C@@H]1CCCc1cc3c(cnn3-c3ccc(F)cc3)cc12 (single isomer, unassigned) [Example 83] | 100 to 1000 | 100 to 1000 |  |
| CC(=O)NC[C@@]12CC[C@](O)(C(F)(F)F)C[C@H]1CCCc1cc3c(cnn3-c3ccc(F)cc3)cc12 (single isomer, unassigned) [Example 84] | < 100 | < 100 |  |
| O=C(NC1CC1)[C@]12CC[C@@](O)(C(F)(F)F)C[C@@H]1CCCc1cc3c(cnn3-c3ccc(F)cc3)cc12 (single isomer, unassigned) [Example 87] | 1000 to 10000 | < 100 |  |
| CC[C@@]12CC[C@](O)(C(F)(F)F)[C@@H](O)[C@@H]1CCCc1cc3c(cnn3-c3ccc(F)cc3)cc12 (single isomer, unassigned) [Example 96] | < 100 | < 100 |  |
| CC[C@]12CC[C@@](O)(C(F)(F)F)[C@H](O)[C@H]1CCCc1cc3c(cnn3-c3ccc(F)cc3)cc12 (single isomer, unassigned) [Example 97] | < 100 | < 100 |  |
| CC[C@@]12C[C@@H](O)[C@](O)(C(F)(F)F)C[C@@H]1CCCc1cc3c(cnn3-c3ccc(F)cc3)cc12 (single isomer, unassigned) [Example 98] | < 100 | < 100 |  |
